The target in this experiment is T1, H3 receptors (Cavia porcellus, UniProt Q9JI35).
T1 construct: The source of the H3 receptors in this experiment was guinea pig brain; from tissue; host or cells: guinea pig brain membranes
Description: H3-Receptor Binding Assay. Conditions: guinea pig brain membranes; 3 nM [3H]R-α-methyl histamine or 3 nM [3H]Nα-methyl histamine; 30° C., 30 min. Here is the method:
Using the appropriate indolene starting materials in a similar procedure, the following compounds were prepared: [drawing 145] General Procedure for H3-Receptor Binding Assay
The source of the H3 receptors in this experiment was guinea pig brain. The animals weighed 400-600 g. The brain tissue was homogenized with a solution of 50 mM Tris, pH 7.5. The final concentration of tissue in the homogenization buffer was 10% w/v. The homogenates were centrifuged at 1,000×g for 10 min. in order to remove clumps of tissue and debris. The resulting supernatants were then centrifuged at 50,000×g for 20 min. in order to sediment the membranes, which were next washed three times in homogenization buffer (50,000×g for 20 min. each). The membranes were frozen and stored at −70° C. until needed.
All compounds to be tested were dissolved in DMSO and then diluted into the binding buffer (50 mM Tris, pH 7.5) such that the final concentration was 2 μg/ml with 0.1% DMSO. Membranes were then added (400 μg of protein) to the reaction tubes. The reaction was started by the addition of 3 nM [^3H]R-α-methyl histamine (8.8 Ci/mmol) or 3 nM [^3H]N^α-methyl histamine (80 Ci/mmol) and continued under incubation at 30° C. for 30 min. Bound ligand was separated from unbound ligand by filtration, and the amount of radioactive ligand bound to the membranes was quantitated by liquid scintillation spectrometry. […]

T1 sequence (Q9JI35 whole entry): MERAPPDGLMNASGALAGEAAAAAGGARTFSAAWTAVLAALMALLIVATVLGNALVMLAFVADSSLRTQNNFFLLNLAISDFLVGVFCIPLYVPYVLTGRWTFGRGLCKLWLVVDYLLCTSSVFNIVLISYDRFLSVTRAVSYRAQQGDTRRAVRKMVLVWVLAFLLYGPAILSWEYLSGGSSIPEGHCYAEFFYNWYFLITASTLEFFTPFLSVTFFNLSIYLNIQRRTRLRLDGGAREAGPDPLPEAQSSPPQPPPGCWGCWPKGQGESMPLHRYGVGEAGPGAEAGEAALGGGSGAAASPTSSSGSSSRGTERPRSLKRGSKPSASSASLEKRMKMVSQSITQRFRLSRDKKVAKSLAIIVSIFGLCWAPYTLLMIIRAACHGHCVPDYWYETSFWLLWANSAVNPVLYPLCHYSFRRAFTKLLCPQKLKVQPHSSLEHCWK

On to `Nc1cc(CN2CCC(C(=O)N3CCC(c4c(-c5ccccn5)n(Cc5ccccn5)c5ccccc45)CC3)CC2)ccn1` [Example 5], for which the Ki (in general, the equilibrium dissociation constant of an inhibitor or competing ligand from its target) was determined as 1.5 nM.

The values are drawn from patent publication US6951871B2, “Indole derivatives useful as histamine H3 antagonists” (Schering Corporation, priority 2002, dated 2005).
